From patent US12502372B2, “(9beta-H)-pimarane mother nucleus diterpenoid compound with anti-colon cancer activity and derivative thereof, and preparation method thereof” (NANJING UNIVERSITY OF CHINESE MEDICINE, priority 2023, dated 2025)

Columns and labels:
[1] = system: HT-29 colon cancer cells; assay: MTT proliferation inhibition (cell viability) on colon cancer cell line HT-29; format: cell-based; settings: for IC50: Homo sapiens, HT-29 colon cancer cell line, 24 hours with drug, MTT method, OD 570 nm, read-out: IC50 ± SD, HT-29
Description: (§1) Colon cancer cell lines HT-29 and SW620 (cell bank of Chinese Academy of Sciences) were cultured in a DMEM culture solution containing 10% fetal bovine serum (Gibco Company of America) at 37° C. under 5% CO2. During subculturing, a dish of tumor cells was taken out first, the culture solution was removed, and 3 mL of PBS was added to wash the cells twice; 1 mL of trypsin was added for digestion, 1 mL of culture solution was added after 2 minutes to stop the digestion, and the mixture was centrifuged at 1000 r/min and room temperature for 5 minutes; and a supernatant was removed, 1 mL of DMEM culture medium containing 10% fetal bovine serum was added, and the mixture was resuspended to obtain a cell suspension.
(§2) Different volumes of DMEM culture media were added to dilute the compounds into different concentrations. Meanwhile, a DMEM culture medium containing 0.1% DMSO was used as a negative control.
(§3) Tumor cells were suspended in a culture medium, inoculated into a 96-well plate (100 μL/well) by a cell density of 6×10^3, and cultured at 37° C. under 5% CO2 for 24 hours. In a logarithmic growth period of the tumor cell lines, different concentrations of compounds were added to culture the cells at 37° C. under 5% CO2 for 24 hours.
(§4) After 24 hours of interaction between the drugs and the tumor cells, 20 μL of MTT solution (5 mg/mL) was added into each well to incubate the cells in a sterile incubator for 3 hours. A supernatant was removed completely, and 150 μL of DMSO was added into each well to react on a shaker for 30 minutes, so as to dissolve bluish violet formazan crystals. An OD value was determined at a wavelength of 570 nm with a microplate reader. IC50 (median inhibitory concentration) values of the compounds were calculated by GraphPad Prism 8 software, and 5-FU was used as a positive control.

[2] = system: colon cancer cell line SW620; assay: MTT proliferation inhibition (cell viability) on colon cancer cell line SW620; format: cell-based; settings: for IC50: Homo sapiens, SW-620, SW620 colon cancer cell line, 24 hours with drug, MTT method, OD 570 nm, read-out: IC50 ± SD, SW620
Description: as §1, §2, §3, §4

IC50 [1] [µM] | IC50 [2] [µM] | Compound | inhibiting effect on HT-29 relative to positive drug 5-FU ([1]; HT-29, compared with 5-FU) | anti-proliferation effect on HT-29 (in words) ([1]; HT-29, stated stronger than positive drug 5-FU) | anti-proliferation effect on SW620 (in words) ([2]; SW620, stated stronger than positive drug 5-FU)
> 20 |  | C[C@@H](C(=O)O)[C@@H]1[C@H]2C[C@H]3c4occc4C(=O)C[C@H]3[C@]1(CCC(=O)O)CO2 [Compound 1, secoicacinlivitholide F] |  |  | 
9.18 ± 1.61 | 14.2 ± 1.43 | O=c1[nH]cc(F)c(=O)[nH]1 [Compound 5-FU, 5-fluorouracil, reference compound] |  |  | 
3.12 ± 1.63 | 9.92 ± 1.68 | COC(=O)CC[C@]12CO[C@H](C[C@H]3c4occc4C(=O)C[C@H]31)[C@H]2[C@@H](C)C(=O)O [Compound 2, secoicacinlivitholide G] | about three times that of the positive drug 5-FU | remarkable anti-proliferation effects | remarkable anti-proliferation effects
